What is called stoichiometry N is the number of molecules, sites or subunits per partner or assembly.

“And” between values parts separate entries of the source, which are not always exact repeats. Equal values may be shown once. Read-outs that look alike come from different tables or passages of the source.

Data set [1] concerns Huh-7 cells. As to the kind of experiment: in vitro. The format is cell-based, human. The settings on record: Huh7+HBV 1.2X; With DFO; Concentration 0 μM. Here is the method: (§1) Supplementary Fig. 11. Effect of FBS serum iron level on Huh-7, HepG2, and HepG2.2.15 cell
(§2) a Cells were maintained in medium supplemented with 2% FBS or 10% FBS for 1 day and treated with
(§3) After 6 days, cytotoxicity was measured. b Cells were treated with
(§4) the ± SD. *p < 0.05 by unpaired two-tailed Student’s t-test.

For data set [2], the system named is HepG2.2.15 cells. The note with it: HepG2.2.15; With DFO; Concentration 0 μM.
Data set [3] relates to HepG2 cells. Description: in vitro. The note with it: HepG2+HBV 1.2X; With DFO; Concentration 0 μM. The format is cell-based, human. Here is the method:
as §1, §2, §3, §4

Data set [4] deals with HBV cccDNA in Huh-7-NTCP cells. Description: In vitro HBV infection model, Huh-7-NTCP cells: intracellular cccDNA. The settings on record: Huh-7-NTCP.
Description: (§5) HepG2 and Huh-7 cells permanently expressing NTCP were generated by infecting them with an NTCP-encoding recombinant retrovirus and isolating GFP-expressing cells.
(§6) The isolated intracellular HBV DNA was subjected to PCR with an HBV DNA primer and probe set (Supplementary Table 1). cccDNA was isolated by the Hirt extraction method[54]. Briefly, the cells were lysed in SDS lysis buffer (50 mM Tris-HCl, pH 8.0, 10 mM EDTA, 150 mM NaCl, 1% SDS), and the lysates were mixed with KCl to a final concentration of 0.5 M. After incubation at 4 °C for 30 min, each lysate was centrifuged and the supernatant was extracted three times with phenol and once with chloroform. The DNA was then recovered by ethanol precipitation, and treated with T5 nuclease (10 U per μg for 0.5 h, M0363, New England Biolabs), and the enzyme was subsequently heat-denatured at 70 °C. The isolated cccDNA was subjected to PCR with a cccDNA primer and probe set (Supplementary Table 1).
(§7) HepG2-NTCP and Huh-7-NTCP cells were cultured in 12-well plates with the indicated compound(s) for 4 h, after which the cells were infected with HBV particles (10^7 viral genome equivalent per mL, genotype D) and treated with the indicated compound(s) for another 16 h. […]
(§8) Quantitative PCR with an HBV DNA primer and probe set was used to measure intracellular
(§9) cccDNA. The data are expressed as means ± SDs. […]
In data set [5] the test system is HBV replicative plasmid pAAV-HBV1.2× in C57BL/6 mice. As to the kind of experiment: Hydrodynamic injection mouse model (pAAV-HBV1.2×, C57BL/6 mice). The format is in vivo. The settings on record: for HBsAg, Sample1-5: single samples.
The subject of data set [6] is HBV cccDNA in HepG2-NTCP cells. Description: In vitro HBV infection model, HepG2-NTCP cells: intracellular cccDNA. The note with it: HepG2-NTCP.
Description: as §5, §6, §7, §8, §9
Data set [7] has as its system HBV (genotype D) in PXB mice. The settings on record: for ALT(ng/mL), Sample1-3 / HBeAg(Signal to control ratio), Sample1-3 / HBsAg(ng/mL), Sample1-3 / Human albumin(g/dL), Sample1-3: individual samples.
Data set [8] deals with the molecule itself. As to the kind of experiment: crystal structure.
Where [9] appears, read: 5 mg per kg oral daily, by day 5.

Regarding `CC(=O)N(O)CCCCCNC(=O)CCC(=O)N(O)CCCCCNC(=O)CCC(=O)N(O)CCCCCN` [DFO], the “Cell viability(%), AVERAGE, DFO alone” value is 97.5263% in data set [1], 97.6681% in data set [2] and 98.1893% in data set [3].

For the molecule `C[C@H](Cn1cnc2c(N)ncnc21)OCP(=O)(O)O` [TDF, tenofovir], the “cccDNA levels” value in data set [4] was “reduced cccDNA levels”. Also, in data set [5] (setting [9]), the “HBV core protein levels in the liver” value is listed as “reduced HBV core protein levels in the liver” and the “serum HBV DNA levels” value is reported as “significantly lowered serum HBV DNA levels”. For the same molecule, in data set [5] (day 2), the “HBsAg, AVERAGE” value came out at 271.658 ng/mL; the “HBsAg, Sample1-5” value is 271.684 ng/mL and 284.96 ng/mL and 258.424 ng/mL and 258.29 ng/mL and 284.933 ng/mL. In addition, in data set [5] (day 3), the “HBsAg, AVERAGE” value was found to be 286.73 ng/mL; the “HBsAg, Sample1-5” value is 286.759 ng/mL and 301.375 ng/mL and 272.159 ng/mL and 272.011 ng/mL and 301.346 ng/mL. In data set [5] (day 4), the “HBsAg, AVERAGE” value came out at 300.864 ng/mL; the “HBsAg, Sample1-5” value was 300.869 ng/mL and 303.445 ng/mL and 298.296 ng/mL and 298.27 ng/mL and 303.44 ng/mL. In data set [5] (day 5), the “HBsAg, AVERAGE” value is recorded as 301.678 ng/mL; the “HBsAg, Sample1-5” value was 301.701 ng/mL and 312.285 ng/mL and 291.119 ng/mL and 291.012 ng/mL and 312.273 ng/mL. For the same molecule, the “cccDNA levels” value in data set [6] is on record as “reduced cccDNA levels”. Further, in data set [7] (5 mg per kg oral daily, by week 5), the “intrahepatic cccDNA” value is recorded as “significantly reduced the amount of intrahepatic cccDNA”. Besides, the HBeAg levels entry in data set [7] (5 mg per kg oral daily, by week 5, compared to control) was “significantly decreased HBeAg levels”. The “cccDNA, individual samples” value in data set [7] (Figure 7g, Sample1-3) was 0.17 log copies/cell and 0.21 log copies/cell and 0.12 log copies/cell. Besides, the “cccDNA, AVERAGE” value in data set [7] (Figure 7g, average of 3 samples) came to 0.166 log copies/cell. In addition, in data set [7] (mouse, in vivo), the “Serum HBV DNA, AVERAGE” value worked out at 4.377 log copies/mL; the “Serum HBV DNA, individual samples” value is 4.385 log copies/mL and 3.759 log copies/mL and 4.998 log copies/mL. The “Serum ALT levels” value in data set [7] (mouse, in vivo, po) is given as “decreased”. Further, in data set [7] (week 0), the “ALT(ng/mL), AVERAGE” value was found to be 115.048 ng/mL; the “HBeAg(Signal to control ratio), AVERAGE” value is 3.779 Signal to control ratio; the “HBsAg(ng/mL), AVERAGE” value was 399.9 ng/mL; the “Human albumin(g/dL), AVERAGE” value was 4.601 g/dL. Further, in data set [7] (week 0), the “ALT(ng/mL), Sample1-3” value is 115.042 ng/mL and 132.129 ng/mL and 97.9737 ng/mL; the “HBeAg(Signal to control ratio), Sample1-3” value was 3.7788 Signal to control ratio and 3.545 Signal to control ratio and 4.013 Signal to control ratio; the “HBsAg(ng/mL), Sample1-3” value was 400.008 ng/mL and 382.767 ng/mL and 416.907 ng/mL; the “Human albumin(g/dL), Sample1-3” value was 4.6008 g/dL and 4.367 g/dL and 4.835 g/dL. For the same molecule, in data set [7] (week 1), the “ALT(ng/mL), AVERAGE” value amounted to 115.048 ng/mL; the “HBeAg(Signal to control ratio), AVERAGE” value is listed as 3.705 Signal to control ratio; the “HBsAg(ng/mL), AVERAGE” value is on record as 397.7 ng/mL; the “Human albumin(g/dL), AVERAGE” value is listed as 4.701 g/dL. Besides, in data set [7] (week 1), the “ALT(ng/mL), Sample1-3” value was 115.042 ng/mL and 132.61 ng/mL and 97.4937 ng/mL; the “HBeAg(Signal to control ratio), Sample1-3” value is 3.705 Signal to control ratio and 3.582 Signal to control ratio and 3.828 Signal to control ratio; the “HBsAg(ng/mL), Sample1-3” value is 397.708 ng/mL and 379.982 ng/mL and 415.082 ng/mL; the “Human albumin(g/dL), Sample1-3” value was 4.7008 g/dL and 4.578 g/dL and 4.824 g/dL. Further, in data set [7] (week 2), the “ALT(ng/mL), AVERAGE” value is 67.3429 ng/mL; the “HBeAg(Signal to control ratio), AVERAGE” value is 3.6862 Signal to control ratio; the “HBsAg(ng/mL), AVERAGE” value is recorded as 390.5 ng/mL; the “Human albumin(g/dL), AVERAGE” value came out at 4.6007 g/dL. In data set [7] (week 2), the “ALT(ng/mL), Sample1-3” value was 67.3361 ng/mL and 86.0047 ng/mL and 48.688 ng/mL; the “HBeAg(Signal to control ratio), Sample1-3” value is 3.6863 Signal to control ratio and 3.541 Signal to control ratio and 3.831 Signal to control ratio; the “HBsAg(ng/mL), Sample1-3” value is 390.508 ng/mL and 371.671 ng/mL and 408.971 ng/mL; the “Human albumin(g/dL), Sample1-3” value was 4.6008 g/dL and 4.456 g/dL and 4.746 g/dL. In data set [7] (week 3), the “ALT(ng/mL), AVERAGE” value is 35.9023 ng/mL; the “HBeAg(Signal to control ratio), AVERAGE” value is recorded as 3.392 Signal to control ratio; the “HBsAg(ng/mL), AVERAGE” value is 386.5 ng/mL; the “Human albumin(g/dL), AVERAGE” value is listed as 4.4 g/dL. Besides, in data set [7] (week 3), the “HBeAg(Signal to control ratio), Sample1-3” value was 3.3922 Signal to control ratio and 2.738 Signal to control ratio and 4.046 Signal to control ratio; the “HBsAg(ng/mL), Sample1-3” value was 386.508 ng/mL and 366.308 ng/mL and 406.308 ng/mL; the “Human albumin(g/dL), Sample1-3” value was 4.4008 g/dL and 3.746 g/dL and 5.054 g/dL. Besides, in data set [7] (week 4), the “ALT(ng/mL), AVERAGE” value is recorded as 31.5198 ng/mL; the “HBeAg(Signal to control ratio), AVERAGE” value is listed as 3.246 Signal to control ratio; the “HBsAg(ng/mL), AVERAGE” value is 375.5 ng/mL; the “Human albumin(g/dL), AVERAGE” value is recorded as 4.601 g/dL. Further, in data set [7] (week 4), the “HBeAg(Signal to control ratio), Sample1-3” value was 3.2465 Signal to control ratio and 2.922 Signal to control ratio and 3.57 Signal to control ratio; the “HBsAg(ng/mL), Sample1-3” value is 375.508 ng/mL and 355.54 ng/mL and 395.08 ng/mL; the “Human albumin(g/dL), Sample1-3” value is 4.6008 g/dL and 4.276 g/dL and 4.924 g/dL. Further, in data set [7] (week 5), the “ALT(ng/mL), AVERAGE” value is recorded as 19.0197 ng/mL; the “HBeAg(Signal to control ratio), AVERAGE” value is 3.146 Signal to control ratio; the “HBsAg(ng/mL), AVERAGE” value came out at 370.7 ng/mL; the “Human albumin(g/dL), AVERAGE” value was 4.801 g/dL. Further, in data set [7] (week 5), the “HBeAg(Signal to control ratio), Sample1-3” value is 3.1465 Signal to control ratio and 2.933 Signal to control ratio and 3.359 Signal to control ratio; the “HBsAg(ng/mL), Sample1-3” value is 370.708 ng/mL and 351.467 ng/mL and 389.567 ng/mL; the “Human albumin(g/dL), Sample1-3” value is 4.8008 g/dL and 4.588 g/dL and 5.014 g/dL.

B1: Cp149-Y132A (Y132A mutant of Cp149) (domain or fragment)
chain: MDIDPYKEFGATVELLSFLPSDFFPSVRDLLDTAAALYRDALESPEHCSPHHTALRQAILCWGDLMTLATWVGTNLEDPASRDLVVSYVNTNVGLKFRQLLWFHISCLTFGRETVLEYLVSFGVWIRTPPAARPPNAPILSTLPETTVV
notes: source: E. coli BL21 (DE3), purified (Ni-NTA, thrombin, HiTrap Q anion exchange)
In the case of B1, the “stoichiometry N” value in data set [8] came out at 6.

The record behind these values is publication PMC6522524 (Nature Communications, 2019).
